Data reported in ChEMBL document CHEMBL3044807, “Synthesis and biological evaluation of new ozonides with improved plant growth regulatory activity” (2009).

test system: Ipomoea grandifolia; assay: Phytotoxic activity against Ipomoea grandifolia assessed as aerial part growth inhibition at 5.0 x 10^-4 mol/l measured 21 days after seed sowing under greenhouse trials (reference value: 0.0%); format: functional; settings: 504 h

In order of rising inhibition at 500 µM:
1. O=C1C2CCCCC1C1OC2C2OOC1O2  46.5%
2. CCC12OC(C3OOC1O3)C1CCCCC2C1=O (mixture of isomers)  47.7%
3. CC12OC(C)(C3OOC1O3)C1CCCCC2C1=O (mixture of isomers)  65.4%

test system: Cucumis sativus; assay: Phytotoxic activity against Cucumis sativus (cucumber) assessed as aerial part growth inhibition at 5.0 x 10^-4 mol/l measured 15 days after seed sowing under greenhouse trials (reference value: 0.0%); format: functional; settings: 360 h

In order of rising inhibition at 500 µM:
1. O=C1C2CCCCC1C1OC2C2OOC1O2  27.5%
2. CC12OC(C)(C3OOC1O3)C1CCCCC2C1=O (mixture of isomers)  43.8%
3. CCC12OC(C3OOC1O3)C1CCCCC2C1=O (mixture of isomers)  48%

test system: Cucumis sativus; assay: Phytotoxic activity against Cucumis sativus (cucumber) assessed as weight of roots at 5.0 x 10^-4 mol/l measured 15 days after seed sowing under greenhouse trials (reference value: 31.0 mg); format: functional; settings: not given

In order of falling Activity:
1. CCC12OC(C3OOC1O3)C1CCCCC2C1=O (mixture of isomers)  7.7 mg
2. O=C1C2CCCCC1C1OC2C2OOC1O2  6.9 mg
3. CC12OC(C)(C3OOC1O3)C1CCCCC2C1=O (mixture of isomers)  6.3 mg

test system: Sorghum bicolor; assay: Phytotoxic activity against Sorghum bicolor assessed as weight of roots at 5.0 x 10^-4 mol/l measured 15 days after seed sowing under greenhouse trials (reference value: 14.0 mg); format: functional; settings: not given

In order of falling Activity:
1. CC12OC(C)(C3OOC1O3)C1CCCCC2C1=O (mixture of isomers)  11.5 mg
2. O=C1C2CCCCC1C1OC2C2OOC1O2  10.3 mg
3. CCC12OC(C3OOC1O3)C1CCCCC2C1=O (mixture of isomers)  10.2 mg

test system: Ipomoea grandifolia; assay: Phytotoxic activity against Ipomoea grandifolia assessed as weight of aerial parts at 5.0 x 10^-4 mol/l measured 21 days after seed sowing under greenhouse trials (reference value: 17.8 mg); format: functional; settings: not given

In order of rising Activity:
1. CC12OC(C)(C3OOC1O3)C1CCCCC2C1=O (mixture of isomers)  6.2 mg
2. CCC12OC(C3OOC1O3)C1CCCCC2C1=O (mixture of isomers)  9.4 mg
3. O=C1C2CCCCC1C1OC2C2OOC1O2  9.6 mg

test system: Urochloa decumbens; assay: Phytotoxic activity against Urochloa decumbens assessed as weight of root at 5.0 x 10^-4 mol/l measured 21 days after seed sowing under greenhouse trials (reference value: 21.2 mg); format: functional; settings: not given

In order of rising Activity:
1. CC12OC(C)(C3OOC1O3)C1CCCCC2C1=O (mixture of isomers)  3.6 mg
2. CCC12OC(C3OOC1O3)C1CCCCC2C1=O (mixture of isomers)  4.6 mg
3. O=C1C2CCCCC1C1OC2C2OOC1O2  8.3 mg

test system: Sorghum bicolor; assay: Phytotoxic activity against Sorghum bicolor assessed as weight of aerial parts at 5.0 x 10^-4 mol/l measured 15 days after seed sowing under greenhouse trials (reference value: 19.0 mg); format: functional; settings: not given

In order of rising Activity:
1. CC12OC(C)(C3OOC1O3)C1CCCCC2C1=O (mixture of isomers)  8.8 mg
2. CCC12OC(C3OOC1O3)C1CCCCC2C1=O (mixture of isomers)  10.3 mg
3. O=C1C2CCCCC1C1OC2C2OOC1O2  10.4 mg

test system: Cucumis sativus; assay: Phytotoxic activity against Cucumis sativus (cucumber) assessed as root growth inhibition at 5.0 x 10^-4 mol/l measured 15 days after seed sowing under greenhouse trials (reference value: 0.0%); format: functional; settings: 360 h

In order of rising inhibition at 500 µM:
1. CCC12OC(C3OOC1O3)C1CCCCC2C1=O (mixture of isomers)  75.2%
2. O=C1C2CCCCC1C1OC2C2OOC1O2  77.8%
3. CC12OC(C)(C3OOC1O3)C1CCCCC2C1=O (mixture of isomers)  79.7%

test system: Cucumis sativus; assay: Phytotoxic activity against Cucumis sativus (cucumber) seedlings assessed as germination at 5x10'-4 mol/l at 28 +/-1 degC after 48 hr by acid-washed sand based radicle elongation assay (reference value: 100%); format: functional; settings: not given

In order of falling germination % at 500 µM:
1. O=C1C2CCCCC1C1OC2C2OOC1O2  100%
2. CC12OC(C)(C3OOC1O3)C1CCCCC2C1=O (mixture of isomers)  100%
3. CCC12OC(C3OOC1O3)C1CCCCC2C1=O (mixture of isomers)  96%

test system: Urochloa decumbens; assay: Phytotoxic activity against Urochloa decumbens assessed as aerial part growth inhibition at 5.0 x 10^-4 mol/l measured 21 days after seed sowing under greenhouse trials (reference value: 0.0%); format: functional; settings: 504 h

In order of rising inhibition at 500 µM:
1. O=C1C2CCCCC1C1OC2C2OOC1O2  44.1%
2. CCC12OC(C3OOC1O3)C1CCCCC2C1=O (mixture of isomers)  74.4%
3. CC12OC(C)(C3OOC1O3)C1CCCCC2C1=O (mixture of isomers)  79.7%

test system: Ipomoea grandifolia; assay: Phytotoxic activity against Ipomoea grandifolia assessed as root growth inhibition at 5.0 x 10^-4 mol/l measured 21 days after seed sowing under greenhouse trials (reference value: 0.0%); format: functional; settings: 504 h

In order of rising inhibition at 500 µM:
1. CCC12OC(C3OOC1O3)C1CCCCC2C1=O (mixture of isomers)  43%
2. O=C1C2CCCCC1C1OC2C2OOC1O2  53.6%
3. CC12OC(C)(C3OOC1O3)C1CCCCC2C1=O (mixture of isomers)  64.6%

test system: Cucumis sativus; assay: Phytotoxic activity against Cucumis sativus (cucumber) seedlings assessed as inhibition of radicle growth at 5x10'-4 mol/l at 28 +/-1 degC after 48 hr by acid-washed sand based radicle elongation assay (reference value: 0.0%); format: functional; settings: not given

In order of rising inhibition at 500 µM:
1. CCC12OC(C3OOC1O3)C1CCCCC2C1=O (mixture of isomers)  57.2%
2. O=C1C2CCCCC1C1OC2C2OOC1O2  68.5%
3. CC12OC(C)(C3OOC1O3)C1CCCCC2C1=O (mixture of isomers)  69.1%

test system: Cucumis sativus; assay: Phytotoxic activity against Cucumis sativus (cucumber) seedlings assessed as radicle length at 5x10'-4 mol/l at 28 +/-1 degC after 48 hr by acid-washed sand based radicle elongation assay (reference value: 4.8 cm); format: functional; settings: not given

In order of falling Activity:
1. CCC12OC(C3OOC1O3)C1CCCCC2C1=O (mixture of isomers)  2.1 cm
2. O=C1C2CCCCC1C1OC2C2OOC1O2  1.5 cm
3. CC12OC(C)(C3OOC1O3)C1CCCCC2C1=O (mixture of isomers)  1.5 cm

test system: Sorghum bicolor; assay: Phytotoxic activity against Sorghum bicolor seedlings assessed as radicle length at 5x10'-4 mol/l at 28 +/-1 degC after 48 hr by acid-washed sand based radicle elongation assay (reference value: 5.1 cm); format: functional; settings: not given

In order of falling Activity:
1. CC12OC(C)(C3OOC1O3)C1CCCCC2C1=O (mixture of isomers)  2.7 cm
2. CCC12OC(C3OOC1O3)C1CCCCC2C1=O (mixture of isomers)  2.4 cm
3. O=C1C2CCCCC1C1OC2C2OOC1O2  2.1 cm

test system: Sorghum bicolor; assay: Phytotoxic activity against Sorghum bicolor seedlings assessed as inhibition of radicle growth at 5x10'-4 mol/l at 28 +/-1 degC after 48 hr by acid-washed sand based radicle elongation assay (reference value: 0.0%); format: functional; settings: not given

In order of rising inhibition at 500 µM:
1. CC12OC(C)(C3OOC1O3)C1CCCCC2C1=O (mixture of isomers)  47.1%
2. CCC12OC(C3OOC1O3)C1CCCCC2C1=O (mixture of isomers)  52.5%
3. O=C1C2CCCCC1C1OC2C2OOC1O2  59.7%

test system: Cucumis sativus; assay: Phytotoxic activity against Cucumis sativus (cucumber) assessed as weight of aerial parts at 5.0 x 10^-4 mol/l measured 15 days after seed sowing under greenhouse trials (reference value: 47.0 mg); format: functional; settings: not given

In order of falling Activity:
1. O=C1C2CCCCC1C1OC2C2OOC1O2  34.1 mg
2. CC12OC(C)(C3OOC1O3)C1CCCCC2C1=O (mixture of isomers)  26.4 mg
3. CCC12OC(C3OOC1O3)C1CCCCC2C1=O (mixture of isomers)  24.4 mg

test system: Sorghum bicolor; assay: Phytotoxic activity against Sorghum bicolor assessed as root growth inhibition at 5.0 x 10^-4 mol/l measured 15 days after seed sowing under greenhouse trials (reference value: 0.0%); format: functional; settings: 360 h

In order of falling inhibition at 500 µM:
1. CCC12OC(C3OOC1O3)C1CCCCC2C1=O (mixture of isomers)  27.1%
2. O=C1C2CCCCC1C1OC2C2OOC1O2  26.4%
3. CC12OC(C)(C3OOC1O3)C1CCCCC2C1=O (mixture of isomers)  18.2%

test system: Urochloa decumbens; assay: Phytotoxic activity against Urochloa decumbens assessed as weight of aerial parts at 5.0 x 10^-4 mol/l measured 21 days after seed sowing under greenhouse trials (reference value: 22.0 mg); format: functional; settings: not given

In order of rising Activity:
1. CC12OC(C)(C3OOC1O3)C1CCCCC2C1=O (mixture of isomers)  4.4 mg
2. CCC12OC(C3OOC1O3)C1CCCCC2C1=O (mixture of isomers)  5.7 mg
3. O=C1C2CCCCC1C1OC2C2OOC1O2  12.3 mg

test system: Sorghum bicolor; assay: Phytotoxic activity against Sorghum bicolor seedlings assessed as germination at 5x10'-4 mol/l at 28 +/-1 degC after 48 hr by acid-washed sand based radicle elongation assay (reference value: 100%); format: functional; settings: not given

In order of rising germination % at 500 µM:
1. O=C1C2CCCCC1C1OC2C2OOC1O2  96%
2. CCC12OC(C3OOC1O3)C1CCCCC2C1=O (mixture of isomers)  100%
3. CC12OC(C)(C3OOC1O3)C1CCCCC2C1=O (mixture of isomers)  100%

test system: Sorghum bicolor; assay: Phytotoxic activity against Sorghum bicolor assessed as aerial part growth inhibition at 5.0 x 10^-4 mol/l measured 15 days after seed sowing under greenhouse trials (reference value: 0.0%); format: functional; settings: 360 h

In order of falling inhibition at 500 µM:
1. CC12OC(C)(C3OOC1O3)C1CCCCC2C1=O (mixture of isomers)  53.9%
2. CCC12OC(C3OOC1O3)C1CCCCC2C1=O (mixture of isomers)  45.4%
3. O=C1C2CCCCC1C1OC2C2OOC1O2  45.1%

test system: Ipomoea grandifolia; assay: Phytotoxic activity against Ipomoea grandifolia assessed as weight of root at 5.0 x 10^-4 mol/l measured 21 days after seed sowing under greenhouse trials (reference value: 18.4 mg); format: functional; settings: not given

In order of rising Activity:
1. CC12OC(C)(C3OOC1O3)C1CCCCC2C1=O (mixture of isomers)  5.7 mg
2. O=C1C2CCCCC1C1OC2C2OOC1O2  7.4 mg
3. CCC12OC(C3OOC1O3)C1CCCCC2C1=O (mixture of isomers)  9.1 mg

test system: Urochloa decumbens; assay: Phytotoxic activity against Urochloa decumbens assessed as root growth inhibition at 5.0 x 10^-4 mol/l measured 21 days after seed sowing under greenhouse trials (reference value: 0.0%); format: functional; settings: 504 h

In order of falling inhibition at 500 µM:
1. CC12OC(C)(C3OOC1O3)C1CCCCC2C1=O (mixture of isomers)  83%
2. CCC12OC(C3OOC1O3)C1CCCCC2C1=O (mixture of isomers)  77.9%
3. O=C1C2CCCCC1C1OC2C2OOC1O2  60.2%
